Results published in paper PMC9698483, “Berbamine Reduces Chloroquine-Induced Itch in Mice through Inhibition of MrgprX1” (International Journal of Molecular Sciences, 2022).

Columns and labels:
[1] = parameters: method as in PMID 29100757; conditions: human pharmacokinetic study; cited from earlier work
[2] = biological target: T1, MrgprX4 (Homo sapiens, UniProt Q96LA9); assay: DCA-induced activation of MrgprX4 in MrgprX4-expressing HEK293T cells (calcium); assay type: cell-based; conditions: 30 μM, 10 min prior to 80 μM DCA
T1 construct: expressed in transfected cells; host or cells: HEK293T
Protocol: To investigate the effect of berbamine on other pruritogenic GPCRs, we observed the effect of berbamine on histamine H1 receptor (H1R), histamine H4 receptor (H4R), MrgprC11, MrgprX4, PAR2, and TGR5.
Figure 3 Effects of berbamine on the activity of other pruritogenic GPCRs: (A,B) Effect of berbamine on histamine 1 receptor (H1R) and histamine 4 receptor (H4R). H1R- and H4R-expressing HEK293T cells were pretreated with 30 μM BBM for 10 min prior to 100 μM histamine treatment. […] (C) Effect of berbamine on PAR2. HT29 cells were pretreated with BBM for 10 min prior to 30 μM PAR2-AP treatment. […] (D) Effect of berbamine on MrgprC11. MrgprC11-expressing HEK293T cells were pretreated with BBM for 10 min prior to 100 μM […] treatment. (E) Effect of berbamine on MrgprX4. MrgprX4-expressing HEK293T cells were pretreated with BBM for 10 min prior to 80 μM DCA treatment. (F) Effect of berbamine on TGR5. TGR5 activity was measured using a YFP fluorescence quenching assay. CHO-K1 cells coexpressing TGR5 and a halide sensor YFP were pretreated with BBM and 80 μM DCA for 10 min prior to I^- treatment. Results were summarized as means ± S.E. (n = 6). NTC, nontransfected cells.
Intracellular calcium levels were measured using a Fluo-4 NW calcium assay kit (Invitrogen, Carlsbad, CA) as per the manufacturer’s protocol in HEK293T and HT29 cells. […]

[3] = test system: DCA-induced itch; assay: DCA-induced pruritus in mice (scratching bouts); assay type: in vivo, BALB/c mice; conditions: 30 mg/kg i.p., DCA 50 μg/50 μL
Protocol: To investigate the antipruritic effect of berbamine, we observed the effect of berbamine on pruritogen-induced scratching behavior in BALB/c mice. Mice were transferred to clear cages and treated with berbamine intraperitoneally after a 30 min acclimatization period. Mouse behavior was recorded for 30 min right after the subcutaneous injection of pruritogens to the nape 30 min after berbamine treatment (Figure 7A). […] We further investigated the effect of berbamine on pruritus caused by other pruritogens.
Figure 7 Effect of berbamine on acute pruritogen-induced pruritus in mice: (A) Scheme of acute pruritogen-induced pruritus mouse model. […] Statistical significance of differences between each group and CQ group was assessed using one-way ANOVA with Tukey’s post hoc test. * p < 0.05, ** p < 0.01, *** p < 0.001. […] Statistical significance of differences was determined using Student’s t-test. […]
[…] six-week-old BALB/c male mice were purchased from DBL (Chungcheong-do, Republic of Korea), and an additional 1 week was given for accommodation. […] After 30 min, pruritogen compounds (i.e., CQ, histamine, PAR2-AP, and DCA) were subcutaneously administered into the nape, and scratching bouts were recorded for 30 min. […] The total number of scratching bouts was counted by recording the number of scratching bouts in the recorded video over 30 min of observation time.

[4] = test system: CQ-sensitive strain of P. falciparum; parameters: method as in doi:10.1002/ddr.430300405; conditions: in vitro; read-out: IC50 antimalaria effect, CQ-sensitive strain; cited from earlier work

T1 sequence (Q96LA9 whole entry): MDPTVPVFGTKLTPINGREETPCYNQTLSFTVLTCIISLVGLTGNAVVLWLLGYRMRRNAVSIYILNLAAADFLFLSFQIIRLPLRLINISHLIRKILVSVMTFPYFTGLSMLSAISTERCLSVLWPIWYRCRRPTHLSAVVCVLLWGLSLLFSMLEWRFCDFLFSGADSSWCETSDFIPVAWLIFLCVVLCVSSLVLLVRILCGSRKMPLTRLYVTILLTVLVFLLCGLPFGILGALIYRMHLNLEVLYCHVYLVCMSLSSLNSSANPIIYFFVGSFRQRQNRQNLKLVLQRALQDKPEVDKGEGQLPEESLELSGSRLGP

COc1cc2c3cc1Oc1c(OC)c(OC)cc4c1[C@@H](Cc1ccc(O)c(c1)Oc1ccc(cc1)C[C@@H]3N(C)CC2)N(C)CC4 [berbamine]
half-life [1]: 39.25 h
effect on DCA-induced activation of MrgprX4 [2]: did not alter
effect on total scratching bouts induced by DCA [3]: no significant effect
IC50 [4]: 603 ± 47 nM
